Measurements published in publication PMC12396291, “DNA-encoded library screening uncovers potent DNMT2 inhibitors targeting a cryptic allosteric binding site” (iScience, 2025).
Entries after “also recorded” stand apart in the source; their conditions may differ.

Legend:
DNMT2 = target: T1, DNMT2 (Homo sapiens, UniProt O14717); test: MST displacement assay with fluorescent FTAD probe; format: binding; design: Fnorm (MST screening): unit not given here; conditions: ligand 100 μM, FTAD probe
T1 construct: Recombinant human DNMT2 (full-length); His-tag; made in house; host or cells: E. coli
T1 sequence (O14717 1-391): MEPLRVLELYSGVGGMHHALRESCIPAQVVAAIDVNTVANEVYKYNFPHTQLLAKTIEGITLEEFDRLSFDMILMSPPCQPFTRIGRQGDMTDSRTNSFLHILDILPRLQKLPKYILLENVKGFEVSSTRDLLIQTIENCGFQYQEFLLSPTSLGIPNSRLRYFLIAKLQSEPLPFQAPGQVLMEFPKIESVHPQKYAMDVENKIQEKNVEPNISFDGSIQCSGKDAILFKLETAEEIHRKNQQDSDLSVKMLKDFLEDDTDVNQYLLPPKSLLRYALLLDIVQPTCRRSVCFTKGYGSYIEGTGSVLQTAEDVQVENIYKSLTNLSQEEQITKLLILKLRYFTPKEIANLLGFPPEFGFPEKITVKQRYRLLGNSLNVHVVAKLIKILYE
Description: Screening for ligand binding and evaluation of dose-response affinity profiles was performed via microscale thermophoresis (MST) as described previously.[42] The measurements were conducted with a Nanotemper Technologies Monolith NT.115 device. All samples were measured in Monolith standard capillaries at 25 °C. The acquisition mode was set to “Nano-Blue” with an excitation power of 30% and a medium MST power, while the system was controlled using the software MO.Control (version 1.6.1) and for evaluation MO.Affinity Analysis (version 2.3) was used. The samples contained 2 μM DNMT2, 100 nM FTAD (5-FAM-triazolyl-adenosyl-Dab) probe, and 1.3% DMSO in MST buffer (50 mM HEPES, 150 mM NaCl, 1 mM dithiothreitol (DTT), 0.1% PEG-8000, 0.05% polysorbate-20, pH 7.4).[42] All compounds were employed at a final concentration of 100 μM for the initial ligand screening.

[1] = Parallel artificial membrane permeation assay (PAMPA); format: in vitro ADME; conditions: 7 h incubation, duplicates
Description: To determine the passive permeability of selected DNMT2 ligands, a parallel artificial membrane permeation assay (PAMPA) was performed as described previously.[68] The experiment was performed in duplicates with Sigma-Aldrich MAIPNTR10 donor plates with 5 μL of an artificial membrane (1% w/v L-α-phosphatidylcholine in n-dodecane) per well. After incubation for 7 h, the acceptor solutions were evaluated by LC/MS (HP Agilent 1100 Series). The peak areas in the UV chromatogram (λ = 210 nm) were used to calculate the areas under the curve (AUCs).

Row | Fnorm (% displ.): FTAD displacement (DNMT2) | Fnorm (MST screening) (DNMT2) | SMILES | Papp (PAMPA) [1]
1 | 5% | 862.4 | CCc1ccc(C(=O)NCC2(C(=O)N[C@@H](CC(=O)NCC(N)=O)Cc3ccccc3)CC2)c(C)c1 [Compound 21] | 
2 | 24% | 891.2 | Cc1ccc(C(=O)NCC2(C(=O)N[C@@H](CC(=O)NCC(N)=O)Cc3ccccc3)CC2)cc1 [Compound 11] | 
3 | 36% | 901.0 | CCc1ccc(C(=O)NCC2(C(=O)N[C@@H](CC(=O)NCC(=O)N(C)C)Cc3ccccc3)CC2)cc1 [Compound 47] | failed to pass through the artificial membrane; also recorded: below detection limit
4 | 32% | 897.7 | COc1ccc(C(=O)NCC2(C(=O)N[C@@H](CC(=O)NCC(N)=O)Cc3ccccc3)CC2)cc1 [Compound 13] | 
5 | 71% | 924.6 | CCc1ccc(C(=O)NCC2(C(=O)N[C@@H](CC(=O)NCC(N)=O)Cc3ccc(Br)cc3)CC2)cc1 [Compound 17] | 
6 | 23% | 890.4 | CCCc1ccc(C(=O)NCC2(C(=O)N[C@@H](CC(=O)NCC(N)=O)Cc3ccccc3)CC2)cc1 [Compound 12] | 
7 | 8% | 871.4 | C#Cc1ccc(C(=O)NCC2(C(=O)N[C@@H](CC(=O)NCC(N)=O)Cc3ccccc3)CC2)cc1 [Compound 19] | 
8 | 8% | 871.9 | CCc1ccc(C(=O)NCC2(C(=O)N[C@@H](CC(=O)NCC(N)=O)Cc3ccccc3)C[C@H]2C(F)(F)F)cc1 (stereo partly shown) [Compound 28] | 
9 | 9% | 872.3 | CCc1ccc(C(=O)NCC2(C(=O)N[C@@H](CC(=O)NCC(N)=O)Cc3ccccc3)C[C@H]2S(C)(=O)=O)cc1 (stereo partly shown) [Compound 29] | 
10 | 7% | 868.4 | CCc1ccc(C(=O)NCC2(C(=O)N[C@@H](CC(=O)N(C)CC(N)=O)Cc3ccccc3)CC2)cc1 [Compound 46] | 
11 | 8% | 870.1 | CCc1ccc(C(=O)NCC2(C(=O)N[C@@H](CC(=O)N[C@H](C)C(N)=O)Cc3ccccc3)CC2)cc1 [Compound 40] | 
12 | 10% | 874.7 | CCc1ccc(C(=O)NCC2(C(=O)N[C@@H](CC(=O)NCCC(N)=O)Cc3ccccc3)CC2)cc1 [Compound 43] | 
13 | 8% | 871.4 | CCc1ccc(C(=O)NCC2(C(=O)N[C@@H](CC(=O)N[C@@H](C)C(N)=O)Cc3ccccc3)CC2)cc1 [Compound 39] | 
14 | 18% | 885.6 | CCc1ccc(C(=O)NCC2(C(=O)N[C@@H](CC(=O)NCC(N)=O)Cc3ccc(I)cc3)CC2)cc1 [Compound 33] | 
15 | 5% | 862.6 | CCc1ccc(C(=O)NCC2(C(=O)N(C)[C@@H](CC(=O)NCC(N)=O)Cc3ccccc3)CC2)cc1 [Compound 45] | 
16 | 5% | 861.7 | CCc1ccc(C(=O)NCC2(C(=O)N[C@@H](CC(=O)NCC(N)=O)Cc3ccc4ccccc4c3)CC2)cc1 [Compound 36] | 
17 | 3% | 856.7 | CCc1ccc(C(=O)NCC2(C(=O)N[C@@H](CC(=O)NCC(N)=O)Cc3csc4ccccc34)CC2)cc1 [Compound 32] | 
18 | 7% | 869.7 | CCc1ccc(C(=O)N(C)CC2(C(=O)NC(CC(=O)NCC(N)=O)Cc3ccccc3)CC2)cc1 (stereo not shown) [Compound 44] | 
19 | 5% | 862.9 | CCc1ccc(C(=O)NCC2(C(=O)N[C@@H](CC(=O)NCC(N)=O)Cc3ccc(O)cc3)CC2)cc1 [Compound 15] | 

Second part, the compound before the results:

Row | SMILES | Fnorm (% displ.): FTAD displacement (DNMT2) | Fnorm (MST screening) (DNMT2) | Papp (PAMPA) [1]
20 | CCc1ccc(C(=O)NCC2(C(=O)N[C@@H](CC(=O)NCC(=O)NCCOCCOCCOCCOC)Cc3ccccc3)CC2)cc1 [Compound 48] | 27% | 894.1 | 
21 | NC(=O)CNC(=O)C[C@@H](Cc1ccccc1)NC(=O)C1(CNC(=O)c2ccc(C3(C(F)(F)F)N=N3)cc2)CC1 [Compound 20] | 11% | 876.5 | 
22 | CC(=O)NCC1(C(=O)N[C@@H](CC(=O)NCC(N)=O)Cc2ccccc2)CC1 [Compound 23] | 5% | 864.4 | 
23 | NC(=O)CNC(=O)C[C@@H](Cc1ccccc1)NC(=O)C1(CNC(=O)c2ccccc2)CC1 [Compound 18] | 7% | 868.2 | 
24 | CCc1ccc(C(=O)NCC2(C(=O)N[C@@H](CC(=O)N[C@@H](C(N)=O)[C@@H](C)O)Cc3c[nH]c4ccccc34)CC2)cc1 [Compound 41] | 6% | 865.3 | 
25 | CCc1ccc(C(=O)NCC2(C(=O)N[C@@H](CC(=O)NCC(N)=O)Cc3c[nH]c4ccccc34)CC2)cc1 [Compound 10] | 40% | 903.3 | failed to pass through the artificial membrane; also recorded: below detection limit
26 | CCc1ccc(C(=O)NCC2(C(=O)N[C@H](CC(=O)NCC(N)=O)Cc3c[nH]c4ccccc34)CC2)cc1 [Compound 31] | 4% | 857.0 | 
27 | CCc1ccc(C(=O)NCC2(C(=O)N[C@@H](CC(=O)NCC(N)=O)C(=O)O)CC2)cc1 [Compound 37] | 4% | 858.6 | 
28 | CCc1ccc(C(=O)NC[C@H](C)C(=O)N[C@@H](CC(=O)NCC(N)=O)Cc2c[nH]c3ccccc23)cc1 [Compound 25] | 3% | 855.5 | 
29 | CCc1ccc(C(=O)NCC2(C(=O)N3Cc4ccccc4C[C@@H]3CC(=O)NCC(N)=O)CC2)cc1 [Compound 35] | 5% | 861.5 | 
30 | CCc1ccc(C(=O)NC2(C(=O)N[C@@H](CC(=O)NCC(N)=O)Cc3c[nH]c4ccccc34)CC2)cc1 [Compound 26] | 5% | 861.9 | 
31 | CCc1ccc(C(=O)NCC2(C(=O)N[C@@H](CC(=O)NCC(=O)O)Cc3c[nH]c4ccccc34)CC2)cc1 [Compound 9] | 46% | 907.7 | 
32 | CCc1ccc(C(=O)NCC2(C(=O)N[C@@H](CC(=O)N[C@@H](Cc3ccccc3)C(N)=O)Cc3ccccc3)CC2)cc1 [Compound 42] | 4% | 858.8 | 
33 | CCc1ccc(C(=O)NCC2(C(=O)N[C@@H](CC(=O)NCC(=O)O)Cc3ccccc3)CC2)cc1 [Compound 54] |  |  | failed to pass through the artificial membrane; also recorded: below detection limit
34 | NC(=O)CNC(=O)C[C@@H](Cc1ccccc1)NC(=O)C1(CNC(=O)C2CCCCC2)CC1 [Compound 22] | 5% | 864.4 | 
35 | CCc1ccc(C(=O)NCCC(=O)N[C@@H](CC(=O)NCC(N)=O)Cc2c[nH]c3ccccc23)cc1 [Compound 27] | 5% | 863.8 | 
36 | CCc1ccc(C(=O)NCC2(C(=O)N[C@@H](CC(=O)NCC(N)=O)Cc3ccccc3)CC2)cc1 [Compound 14] |  |  | failed to pass through the artificial membrane; also recorded: below detection limit
37 | CCc1ccc(C(=O)NCC2(C(=O)NCCC(=O)NCC(N)=O)CC2)cc1 [Compound 38] | 4% | 859.4 | 
38 | CCc1ccc(C(=O)NC[C@H](N)C(=O)N[C@@H](CC(=O)NCC(N)=O)Cc2c[nH]c3ccccc23)cc1 [Compound 24] | 4% | 860.8 | 
